Laboratory results reported in US12437835B2, “Interrogatory cell-based assays and uses thereof” (Berg LLC, priority 2012, dated 2025).
“Also recorded” adds a separate entry of the source.

Columns and labels:
[1] = test system: human mitochondrial energy metabolism genes; assay: Transcriptional profiling of mitochondrial energy metabolism genes in diabetic cardiomyocytes; format: cell-based; details: diabetic drug plus rescue molecule Coenzyme Q10 (T+R) vs untreated (UT)
Procedure: Human cardiomyocytes were subject to conditions simulating an diabetic environment experienced by the disease-relevant cells in vivo. Specifically, the cells were exposed to hyperglycemic conditions and hyperlipidemia conditions. The hyperglycemic condition was induced by culturing cells in media containing 22 mM glucose. The hyperlipidemia condition was induced by culturing the cells in media containing 1 mM L-carnitine, 0.7 mM Oleic acid and 0.7 mM Linoleic acid. […]
Cell samples from each condition with each perturbation treatment were collected at various times following treatment, including after 6 hours of treatment. For certain conditions, media samples were also collected and analyzed.
iProfiling of changes in total cellular protein expression by quantitative proteomics was performed for cell and media samples collected for each condition and with each “environmental perturbation”, i.e, diabetic drug treatment, Coenzyme Q10 treatment or both, using the techniques described above in the detailed description. […] Following data collection (Ct), the final fold change over control was determined using the δCt method as outlined in manufacturer's protocol. […] Functional assays such as Oxygen consumption rate OCR were measured by employing the Seahorse analyzer essentially as recommended by the manufacturer. […]

GPAT1 = assay: Western blotting of GPAT1 in cardiomyocytes; format: cell-based, Human; details: hyperglycemia conditioned cardiomyocytes, diabetic drug plus Coenzyme Q10 (T+R)
Procedure: (§1) Human cardiomyocytes were subject to conditions simulating an diabetic environment experienced by the disease-relevant cells in vivo. Specifically, the cells were exposed to hyperglycemic conditions and hyperlipidemia conditions. The hyperglycemic condition was induced by culturing cells in media containing 22 mM glucose. The hyperlipidemia condition was induced by culturing the cells in media containing 1 mM L-carnitine, 0.7 mM Oleic acid and 0.7 mM Linoleic acid.
The cell model comprising the above-mentioned cells, wherein the cells were exposed to each condition described above, was additionally “interrogated” by exposing the cells to an “environmental perturbation” by treating with a diabetic drug (T) which is known to cause cardiotoxicity, a rescue molecule (R) or both the diabetic drug and the rescue molecule (T+R). Specifically, the cells were treated with diabetic drug; or treated with rescue molecule Coenzyme Q10 at 0, 50 µM, or 100 µM; or treated with both of the diabetic drug and the rescue molecule Coenzyme Q10.
Protein expression levels of GPAT1 and TAZ for each condition and each treatment were tested with western blotting.

[2] = test system: hyperglycemia conditioned cardiomyocytes; assay: Mitochondrial oxygen consumption rate in hyperglycemia conditioned cardiomyocytes (Seahorse); format: cell-based, Human; details: diabetic drug plus Coenzyme Q10 (T1+R or T2+R)
Procedure: as §1
iProfiling of changes in total cellular protein expression by quantitative proteomics was performed for cell and media samples collected for each condition and with each “environmental perturbation”, i.e, diabetic drug treatment, Coenzyme Q10 treatment or both, using the techniques described above in the detailed description. Transcriptional profiling experiments were carried out using the Biorad cfx-384 amplification system. Following data collection (Ct), the final fold change over control was determined using the δCt method as outlined in manufacturer's protocol. Lipidomics experiments were carried out using mass spectrometry. Functional assays such as Oxygen consumption rate OCR were measured by employing the Seahorse analyzer essentially as recommended by the manufacturer. OCR was recorded by the electrodes in a […] chamber created with the cartridge pushing against the seahorse culture plate. […]

HUVEC cells [3] = assay: Endothelial morphology of HUVEC cultures; format: cell-based, Human; details: 24 hours
Procedure: Effect of CoQ10 on endothelial morphology: Human umbilical vein endothelial cells (HUVEC cells) were treated for 24 hours with a range of concentrations of CoQ10. Drug was applied to confluent cells that closely resemble ‘normal’ cells and also to sub-confluent cells that more closely represent the angiogenic phenotype of proliferating cells. […] The response of sub-confluent endothelial cells to CoQ10 diverged from the confluent cell response (FIG. 52B).

HUVEC cells [4] = assay: HUVEC apoptosis (annexin V/propidium iodide positive cells, flow cytometry); format: cell-based, Human; details: for propidium iodide positive apoptotic cells: 24 hours
Procedure: (§2) Methods: Human umbilical vein endothelial cell (HUVEC) fate decisions that modulate the angiogenic phenotype were examined in the presence of 100 or 1500 μM CoQ10 or excipient and compared to untreated control cells. Endothelial cell fate assays for apoptosis, proliferation, migration and 3-D tube formation within MATRIGEL® were performed.
(§3) To assess the potential effects of CoQ10 on endothelial migration, HUVEC migration was examined 5 hours post-cell clearance, in an endothelial scratch assay. […] In order to determine if the CoQ10 anti-tumor activity is due to effects on endothelial sprouting angiogenesis, we examined endothelial tube formation in 3-D MATRIGEL® cultures over time. Addition of excipient in both the gel and overlying media impaired tube formation compared to control.
CoQ10 has divergent effects on endothelial cell survival: Confluent and sub-confluent cultures of HUVEC cells were treated for 24 hours with 100 or 1500 μM CoQ10 and assayed for propidium iodide positive apoptotic cells. The results are shown in FIGS. 53A and 53B, respectively.

HUVEC cells [5] = assay: HUVEC cell numbers; format: cell-based, Human
Procedure: as §2
(§4) CoQ10 decreases endothelial cell numbers and proliferation: Sub-confluent cultures of HUVEC cells were treated for 72 hours with 100 or 1500 μM CoQ10 and assayed for both cell numbers (FIG. 54A) and proliferation (FIG. 54B) using a propidium iodide incorporation assay (detects G2/M phase DNA).

HUVEC cells [6] = assay: HUVEC proliferation (propidium iodide incorporation, G2/M phase); format: cell-based, Human; details: sub-confluent HUVEC, 72 hours, 100 or 1500 μM CoQ10
Procedure: as §2, §4

HUVEC cells [7] = assay: HUVEC migration, endothelial scratch assay; format: cell-based, Human; details: for closure of the cleared area (scratch assay): confluent HUVEC
Procedure: as §2, §3
CoQ10 decreases endothelial cell migration: HUVEC cells were grown to confluence tested for migration using the ‘scratch’ assay. 100 or 1500 μM CoQ10 was applied at the time of scratching and closure of the cleared area was monitored over 48 hours.

caspase 3 = assay: Caspase 3 activation in endothelial cells; format: cell-based
Description: Angiogenesis is a key enabling feature of tumor progression that provides oxygen and nutrients that are required for tumor cell growth. We have investigated the anti-angiogenic properties of CoQ10, an anti-tumor drug that is currently under investigation in human studies of cancer progression.

Bcl2 = details: melanoma cell, in the presence of VEGF; cited from earlier work
[8] = concentration not stated (summary)

COC1=C(OC)C(=O)C(C/C=C(\C)CC/C=C(\C)CC/C=C(\C)CC/C=C(\C)CC/C=C(\C)CC/C=C(\C)CC/C=C(\C)CC/C=C(\C)CC/C=C(\C)CCC=C(C)C)=C(C)C1=O [CoQ10, Coenzyme Q10]
transcriptional network and expression of human mitochondrial energy metabolism genes ([1]; listed as Coenzyme Q10): normalize gene expression and transcription
transcriptional network and expression of human mitochondrial energy metabolism genes ([1]; listed as rescue molecule): normalizes gene expression
protein expression level of GPAT1 (GPAT1): normalized
mitochondrial OCR (oxygen consumption rate) [2]: normalized
mitochondrial OCR (oxygen consumption rate) ([2]; listed as rescue molecule): normalizes
endothelial morphology (HUVEC cells [3]; confluent cultures, 5000 μM): subtle increase in rounded cells
endothelial morphology (HUVEC cells [3]; confluent cultures, increasing concentrations of CoQ10): closer association, elongation and alignment of ECs
endothelial morphology (HUVEC cells [3]; sub-confluent cultures, 1000 μM CoQ10 and above): visibly unhealthy
visible cell death (HUVEC cells [3]; sub-confluent cultures, increasing concentrations of CoQ10): Increased cell death
HUVEC apoptosis (annexin V/propidium iodide positive cells) (HUVEC cells [4]; 1500 μM CoQ10, compared to excipient or control cells): increase
apoptosis / cell death of sub-confluent (angiogenic/proliferating) endothelial cells (HUVEC cells [4]; [8]): increases apoptosis; also recorded: selectively induces cell death
cell death of confluent (non-proliferating) endothelial cells (HUVEC cells [4]; concentration not stated or low doses (summary), compared to controls): protective; also recorded: decreased compared to controls
propidium iodide positive apoptotic cells (HUVEC cells [4]; confluent HUVEC, 100 or 1500 μM CoQ10): protective
propidium iodide positive apoptotic cells (HUVEC cells [4]; sub-confluent HUVEC, 1500 μM CoQ10): increased apoptosis
HUVEC cell counts (HUVEC cells [5]; 1500 μM CoQ10): significantly decreased
cell numbers (HUVEC cells [5]; sub-confluent HUVEC, 72 hours, 100 or 1500 μM, high concentrations of CoQ10): significant decrease; also recorded: decreased cell numbers
EC proliferation (G2/M phase cells) (HUVEC cells [6]): dose-dependent effect; also recorded: potent inhibitor of endothelial proliferation; also recorded: impairs endothelial proliferation
HUVEC migration (HUVEC cells [7]; 5 hours post-cell clearance, 100 and 1500 μM, excipient also impaired migration): significantly impaired
endothelial migration in scratch assays (HUVEC cells [7]; [8]): potent inhibition of endothelial migration; also recorded: impairs endothelial migration
closure of the cleared area (scratch assay) (HUVEC cells [7]; 100 μM CoQ10, monitored over 48 hours, compared to control): delayed endothelial closure
closure of the cleared area (scratch assay) (HUVEC cells [7]; 1500 μM CoQ10, up to 48 hours): prevented closure
activation of caspase 3 (caspase 3): induces activation of caspase 3
level of Bcl2 (Bcl2): decreased
